The values below come from patent US11066414B2, “Cot modulators and methods of use thereof” (Gilead Sciences, Inc., priority 2015, dated 2021).

In one experiment the test system is TNFα. Kind of experiment: Cot Monocyte TNFα Cell Based Assay. To be noted: Homo sapiens, Monocyte, read-out: EC50 TNF, LPS-stimulated human monocytes, TNFα.
With `Cc1nc(F)ccc1[C@H](Nc1cc(Cl)c2ncc(C#N)c(N[C@H](C)C(C)(C)C)c2c1)c1cn(C2(C(F)(F)F)CC2)nn1` [Example 582, 8-chloro-4-(((R)-3,3-dimethylbutan-2-yl)amino)-6-(((S)-(6-fluoro-2-methylpyridin-3-yl)(1-(1-(trifluoromethyl)cyclopropyl)-1H-1,2,3-triazol-4-yl)methyl)amino)quinoline-3-carbonitrile], the EC50 came to 184 nM.

For `Cc1nc(F)ccc1[C@H](Nc1cc(C#N)c2ncc(C#N)c(NC3CCCCC3)c2c1)c1cn(C2(C(F)(F)F)CC2)nn1` [Example 585, (S)-4-(cyclohexylamino)-6-(((6-fluoro-2-methylpyridin-3-yl)(1-(1-(trifluoromethyl)-cyclopropyl)-1H-1,2,3-triazol-4-yl)methyl)amino)quinoline-3,8-dicarbonitrile], the EC50 is 838 nM.

As for `Cc1nc(F)ccc1[C@H](Nc1cc(C#N)c2ncc(C#N)c(NCC(C)(C)C)c2c1)c1cn(C(C)(C)C)nn1` [Example 589, (S)-6-(((1-(tert-butyl)-1H-1,2,3-triazol-4-yl)(6-fluoro-2-methylpyridin-3-yl)methyl)amino)-4-(neopentylamino)quinoline-3,8-dicarbonitrile], the EC50 came to 34 nM.

As to `CC(C)(C)CNc1c(C#N)cnc2c(Cl)cc(N[C@H](c3cn(C4(C(F)(F)F)CC4)nn3)c3cccn4cncc34)cc12` [Example 599, (S)-8-chloro-6-((imidazo[1,5-a]pyridin-8-yl(1-(1-(trifluoromethyl)cyclopropyl)-1H-1,2,3-triazol-4-yl)methyl)amino)-4-(neopentylamino)quinoline-3-carbonitrile], the EC50 is 316 nM.

Consider `Cc1nc(F)ccc1[C@H](Nc1cc(C#N)c2ncc(C#N)c(N[C@@H](c3ccccc3)C3CC3)c2c1)c1cn(C2(C(F)(F)F)CC2)nn1` [Example 613, 4-(((R)-cyclopropyl(phenyl)methyl)amino)-6-(((S)-(6-fluoro-2-methylpyridin-3-yl)(1-(1-(trifluoromethyl)cyclopropyl)-1H-1,2,3-triazol-4-yl)methyl)amino)quinoline-3,8-dicarbonitrile], for which the EC50 stood at 144 nM.

For `Cc1nc(F)ccc1[C@H](Nc1cc(C#N)c2ncc(C#N)c(NCC(C)(C)C#N)c2c1)c1cn(C2(C(F)(F)F)CC2)nn1` [Example 615, (S)-4-((2-cyano-2-methylpropyl)amino)-6-(((6-fluoro-2-methylpyridin-3-yl)(1-(1-(trifluoromethyl)cyclopropyl)-1H-1,2,3-triazol-4-yl)methyl)amino)quinoline-3,8-dicarbonitrile], the EC50 was 588 nM.

Regarding `CC(C)(C)CNc1c(C#N)cnc2c(Cl)cc(N[C@H](c3cn(C4(C(F)(F)F)CC4)nn3)c3ccc(F)c4cnccc34)cc12` [Example 616, (S)-8-chloro-6-(((8-fluoroisoquinolin-5-yl)(1-(1-(trifluoromethyl)cyclopropyl)-1H-1,2,3-triazol-4-yl)methyl)amino)-4-(neopentylamino)quinoline-3-carbonitrile], the EC50 was determined as 104 nM.

In the case of `Cc1ncoc1[C@H](Nc1cc(Cl)c2ncc(C#N)c(NCC(C)(C)C)c2c1)c1cn(C2(C(F)F)CC2)nn1` [Example 630, (R)-8-chloro-6-(((1-(1-(difluoromethyl)cyclopropyl)-1H-1,2,3-triazol-4-yl)(4-methyloxazol-5-yl)methyl)amino)-4-(neopentylamino)quinoline-3-carbonitrile], the concentration giving a half-maximal response (EC50) was found to be 1000 nM.

In the case of `COc1ccnc2cccc([C@H](Nc3cc(Cl)c4ncc(C#N)c(NCC(C)(C)C)c4c3)c3cn(C4(C(F)(F)F)CC4)nn3)c12` [Example 632, (S)-8-chloro-6-(((4-methoxyquinolin-5-yl)(1-(1-(trifluoromethyl)cyclopropyl)-1H-1,2,3-triazol-4-yl)methyl)amino)-4-(neopentylamino)quinoline-3-carbonitrile], the EC50 is 1000 nM.

Consider `Cc1nc(F)ccc1[C@H](Nc1cc(C#N)c2ncc(C#N)c(NCC(C)(C)C)c2c1)c1cn(C2(C(F)(F)F)COC2)nn1` [Example 644, (S)-6-(((6-fluoro-2-methylpyridin-3-yl)(1-(3-(trifluoromethyl)oxetan-3-yl)-1H-1,2,3-triazol-4-yl)methyl)amino)-4-(neopentylamino)quinoline-3,8-dicarbonitrile], for which the concentration for a half-maximal effect (EC50) was determined as 88 nM.

Consider `Cc1nc(F)ccc1[C@H](Nc1cc(Cl)c2ncc(C#N)c(NCC(C)(C)C)c2c1)c1nnn(C2CC2)c1C` [Example 647, (S)-8-chloro-6-(((1-cyclopropyl-5-methyl-1H-1,2,3-triazol-4-yl)(6-fluoro-2-methylpyridin-3-yl)methyl)amino)-4-(neopentylamino)quinoline-3-carbonitrile], for which the EC50 was found to be 133 nM.

For the molecule `CC(C)(C)CNc1c(C#N)cnc2c(Cl)cc(N[C@H](c3cn(C4(C(F)(F)F)CC4)nn3)c3ccc(Cl)c4cnccc34)cc12` [Example 651, (S)-8-chloro-6-(((8-chloroisoquinolin-5-yl)(1-(1-(trifluoromethyl)cyclopropyl)-1H-1,2,3-triazol-4-yl)methyl)amino)-4-(neopentylamino)quinoline-3-carbonitrile], the concentration for a half-maximal effect (EC50) was determined as 135 nM.

Regarding `Cn1ncc2c([C@H](Nc3cc(Cl)c4ncc(C#N)c(NCC(C)(C)C)c4c3)c3cn(Cc4c(F)cccc4F)nn3)cccc21` [Example 655, (S)-8-chloro-6-(((1-(2,6-difluorobenzyl)-1H-1,2,3-triazol-4-yl)(1-methyl-1H-indazol-4-yl)methyl)amino)-4-(neopentylamino)quinoline-3-carbonitrile], the 50% effective concentration (EC50) came to 104 nM.

With `Cc1ncoc1[C@H](Nc1cc(C#N)c2ncc(C#N)c(NCC(C)(C)C)c2c1)c1cn(C2(C(F)F)CC2)nn1` [Example 657, (R)-6-(((1-(1-(difluoromethyl)-cyclopropyl)-1H-1,2,3-triazol-4-yl)(4-methyloxazol-5-yl)methyl)amino)-4-(neopentylamino)quinoline-3,8-dicarbonitrile], the concentration giving a half-maximal response (EC50) stood at 806 nM.

Take `Cn1ccc2c([C@H](Nc3cc(Cl)c4ncc(C#N)c(NCC(C)(C)C)c4c3)c3cn(C4(C(F)(F)F)CC4)nn3)ccnc21` [Example 658, (S)-8-chloro-6-(((1-methyl-1H-pyrrolo[2,3-b]pyridin-4-yl)(1-(1-(trifluoromethyl)-cyclopropyl)-1H-1,2,3-triazol-4-yl)methyl)amino)-4-(neopentylamino)quinoline-3-carbonitrile]: the EC50 was 374 nM.

Regarding `Cn1ccc2c([C@H](Nc3cc(C#N)c4ncc(C#N)c(NCC(C)(C)C)c4c3)c3cn(C4(C(F)(F)F)CC4)nn3)ccnc21` [Example 664, (S)-6-(((1-methyl-1H-pyrrolo[2,3-b]pyridin-4-yl)(1-(1-(trifluoromethyl)cyclopropyl)-1H-1,2,3-triazol-4-yl)methyl)amino)-4-(neopentylamino)quinoline-3,8-dicarbonitrile], the EC50 came out at 154 nM.

The same experiment, now with this note: read-out: EC50 TNF; LPS-stimulated human monocytes, TNFα.
For the molecule `CC(C)(C)CNc1c(C#N)cnc2c(C#N)cc(N[C@H](c3cn(C4(C(F)F)CC4)nn3)c3cccc4cnccc34)cc12` [Example 551], the EC50 was 27 nM.

With `Cn1nccc1[C@H](Nc1cc(Cl)c2ncc(C#N)c(NCC(C)(C)C)c2c1)c1cn(C2(C(F)(F)F)CC2)nn1` [Example 666, (S)-8-chloro-6-(((1-methyl-1H-pyrazol-S-yl)(1-(1-(trifluoromethyl)cyclopropyl)-1H-1,2,3-triazol-4-yl)methyl)amino)-4-(neopentylamino)quinoline-3-carbonitrile], the EC50 is 246 nM.
